Experiments:
[1] = tested on: Staphylococcus aureus ATCC 29213; assay: Antibacterial broth dilution assay against S. aureus (modified CLSI); format: cell-based; conditions: for S. aureus IC50 / IC50: in vitro; for IC50: converted with molecular weight; for X more potent than ciprofloxacen: molar IC50 ratio versus ciprofloxacen
Description: (§1) General Experimental Procedures. All organisms were obtained from the American Type Culture Collection (Manassas, VA) and include the fungi Candida albicans ATCC 90028, C. glabrata ATCC 90030, C. krusei ATCC 6258, and Cryptococcus neoformans ATCC 90113, and the bacteria Staphylococcus aureus ATCC 29213 and methicillin-resistant S. aureus ATCC 33591 (MRS). All organisms were tested using modified versions of the CLSI (formerly NCCLS) methods. For all organisms, optical density was used to monitor growth (NCCLS, Reference Method for Broth Dilution Antifungal Susceptibility Testing of Yeasts; Approved Standard M27-A2. National Committee on Clinical Laboratory Standards, 2002 22 (15); and NCCLS, Methods for Dilution Antimicrobial Susceptibility Tests for Bacteria that Grow Aerobically; Approved Standard, Seventh Edition M7-A7. National Committee on Clinical Laboratory Standards, 2006. 26(2)).
(§2) Samples (dissolved in DMSO) were serially-diluted in 20% DMSO/saline and transferred (10 μL) in duplicate to 96 well flat bottom microplates. Inocula were prepared by correcting the OD630 of microbe suspensions in incubation broth [RPMI 1640/0.2% dextrose/0.03% glutamine/MOPS @ pH 6.0 (Cellgro) for Candida spp., Sabouraud Dextrose for C. neoformans, and cation-adjusted Mueller-Hinton (Difco) @ pH 7.3 for Staphylococcus spp. to afford an assay volume of […] and final target inocula of: Candida spp. and C. neoformans: 1.5×10^3, and Staphylococcus spp.: 5.0×10^5 CFU/ml. Final sample test concentrations were 1/100th the DMSO stock concentration. […] All organisms were read at either 530 nm using the Biotek Powerwave XS plate reader (Bio-Tek Instruments, Vermont) prior to and after incubation: Candida spp. at 35° C. for 46-50 h, Staphylococcus spp. at 35° C. for 16-20 h, and C. neoformans at 35° C. for 70-74 h. IC50s (concentrations that afford 50% inhibition relative to controls) were calculated using XLfit 4.2 software (IDBS, Alameda, CA) using fit model 201. The MIC is defined as the lowest test concentration that allows no detectable growth. Minimum fungicidal or bactericidal concentrations were determined by removing 5 μl from each clear (or blue) well, transferring to fresh media, and incubating as previously mentioned. The MFC/MBC is defined as the lowest test concentration that kills the organism (allows no growth).
(§3) Primary Analysis. Samples were tested in duplicate at one test concentration (50 μg/mL), and percent inhibitions were calculated relative to blank and growth controls. Samples showing 50% inhibition in at least one test organism were selected for dose response (Secondary) studies.
(§4) Secondary Analysis. Extracts from the Primary Assay, and first-run pure compounds and column fractions were tested in duplicate at 3 test concentrations (5-fold dilutions). Samples dissolved to 20 mg/mL in DMSO were tested at 200, 40, and 8 μg/mL. Samples dissolved to 2 mg/mL in DMSO were tested at 20, 4, and 0.8 μg/mL.

[2] = tested on: methicillin-resistant S. aureus ATCC 33591 (MRS); assay: Antibacterial broth dilution assay against MRSA (modified CLSI); format: cell-based, Staphylococcus aureus; conditions: for MRSa IC50 / IC50: in vitro; for IC50: converted with molecular weight; for X more potent than ciprofloxacen: molar IC50 ratio versus ciprofloxacen
Description: as §1, §2, §3, §4

[3] = tested on: Cryptococcus neoformans ATCC 90113; assay: Antimicrobial microdilution assay against Cryptococcus neoformans (modified CLSI/NCCLS, optical density); format: cell-based; conditions: for X more potent than Amphotericin B: C. neoformans, ratio of molar IC50 to Amphotericin B; for C. neoformans IC50 / IC50: in vitro, C. neoformans ATCC 90113; for IC50: read-out: C. neoformans IC50 (mol/L)
Method in brief: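 Fungicidal endpoint taken by subculturing 5 μL from each clear well onto agar, MFC being the lowest concentration with no regrowth. Duplicate wells of serially diluted compound (20% DMSO/saline) in RPMI pH 6.0, read at 630 nm pre- and post-incubation, under modified CLSI methods. IC50 means 50% growth inhibition against controls.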

[4] = tested on: L. donovani promastigotes; assay: Antileishmanial Alamar Blue assay on promastigotes; format: cell-based, Leishmania donovani; conditions: for X more potent than Pentamidine: L. donovani, ratio of molar IC50 to Pentamidine; for L. donovani IC50 / IC50: promastigotes, 48 hours, Alamar Blue; for IC50: read-out: L. donavani IC50
Method in brief: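 Alamar Blue fluorescence (544/590 nm) quantified growth after 48 hours at 26° C of compound-treated promastigotes. Parasites were seeded at 5×10^5/mL in RPMI 1640 plus 10% FCS; drug range 50-3.1 μg/mL, and IC50 derived by plotting percent growth against test concentration.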

[5] = tested on: C. krusei ATCC 6258; assay: Antifungal broth dilution assay against C. krusei (modified CLSI); format: cell-based, Candida krusei; conditions: for X more potent than Amphotericin B: C. krusei, ratio of molar IC50 to amphotericin B; for C. krusei IC50 / IC50: in vitro; for IC50: read-out: C. krusei IC50 (mol/L)
Description: as §1, §2, §3, §4

[6] = tested on: C. glabrata ATCC 90030; assay: Antifungal broth dilution assay against C. glabrata (modified CLSI); format: cell-based, Candida glabrata; conditions: for C. glabrata IC50 / IC50: in vitro; for IC50: converted with molecular weight; for X more potent than Amphotericin B: molar IC50 ratio versus amphotericin B
Method in brief: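 Growth read by optical density at 530 nm, duplicate wells, 1% final DMSO. Staphylococcus spp.: Mueller-Hinton pH 7.3, 5.0×10^5 CFU/ml, 35 °C for 16-20 h; Candida spp.: RPMI/dextrose/glutamine/MOPS pH 6.0, 1.5×10^3 CFU/ml, 35 °C for 46-50 h. Reported values are 50% inhibition versus controls, no-growth MIC, and killing MFC/MBC.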

c1ccc(CN2CCN3CCN(CC2)CCN(Cc2ccccc2)CC3)cc1 [ANCl4]
S. aureus IC50 [1]: 8.810 µg/mL | IC50 [1]: 23.3 µM | X more potent than ciprofloxacen [1]: 0.01 | MRSa IC50 [2]: 8.570 µg/mL | IC50 [2]: 22.6 µM | X more potent than ciprofloxacen [2]: 0.01

CC(=O)[O-].F[P-](F)(F)(F)(F)F.[Zn+2].c1ccc(CN2CCCN3CCCN(CCCN(Cc4ccccc4)CC3)CC2)cc1 [DJD23, [Zn(Bn2PBCyclam)(OAc)]PF6]
X more potent than Amphotericin B [3]: 0.08 | C. neoformans IC50 [3]: 1.990 µg/mL | X more potent than Pentamidine [4]: 0.85 | L. donovani IC50 [4]: 4.32 µg/mL | S. aureus IC50 [1]: 6.530 µg/mL | X more potent than ciprofloxacen [1]: 0.03 | MRSa IC50 [2]: 3.210 µg/mL | X more potent than ciprofloxacen [2]: 0.05

Clc1cc(CN2CCNCCN3CCN(CC3)CC2)cc(Cl)n1 [OB99, (dcp)1-SB-cyclen]
X more potent than Amphotericin B [3]: 0.28 | C. neoformans IC50 [3]: 0.310 µg/mL | IC50 [3]: 0.865 µM | X more potent than Pentamidine [4]: 0.09 | L. donovani IC50 [4]: 20.87 µg/mL | IC50 [4]: 58.2 µM | X more potent than Amphotericin B [5]: 0.09 | C. krusei IC50 [5]: 5.660 µg/mL | IC50 [5]: 15.8 µM | S. aureus IC50 [1]: 7.520 µg/mL | IC50 [1]: 21 µM | X more potent than ciprofloxacen [1]: 0.01

c1ccc(CN2CCCN3CCCN(CCCN(Cc4ccccc4)CC3)CC2)cc1 [SLK09, Bn2PBCyclam]
X more potent than Amphotericin B [3]: 0.11 | C. neoformans IC50 [3]: 0.910 µg/mL | IC50 [3]: 2.16 µM | X more potent than Pentamidine [4]: 0.87 | L. donovani IC50 [4]: 2.56 µg/mL | IC50 [4]: 6.09 µM | S. aureus IC50 [1]: 2.270 µg/mL | IC50 [1]: 5.4 µM | X more potent than ciprofloxacen [1]: 0.05 | MRSa IC50 [2]: 4.960 µg/mL | IC50 [2]: 11.8 µM | X more potent than ciprofloxacen [2]: 0.02

[Co2(m-cyclam-homocyclen)(OAc)2][PF6]2 [AW049]
X more potent than Amphotericin B [3]: 1.67 | C. neoformans IC50 [3]: 0.156 µg/mL | IC50 [3]: 0.143 µM | X more potent than Pentamidine [4]: 0.34 | L. donovani IC50 [4]: 16.93 µg/mL | IC50 [4]: 15.5 µM | X more potent than Amphotericin B [5]: 0.25 | C. krusei IC50 [5]: 6.520 µg/mL | IC50 [5]: 5.96 µM | C. glabrata IC50 [6]: 1.217 µg/mL | IC50 [6]: 1.11 µM | X more potent than Amphotericin B [6]: 1.28 | S. aureus IC50 [1]: 5.600 µg/mL | IC50 [1]: 5.12 µM | X more potent than ciprofloxacen [1]: 0.05

[Ni2(m-cyclam-homocyclen)(OAc)2][PF6]2•H2O [AW050]
X more potent than Amphotericin B [3]: 0.25 | C. neoformans IC50 [3]: 1.040 µg/mL | IC50 [3]: 0.935 µM | X more potent than Pentamidine [4]: 0.36 | L. donovani IC50 [4]: 16.50 µg/mL | IC50 [4]: 14.8 µM | S. aureus IC50 [1]: 8.540 µg/mL | IC50 [1]: 7.68 µM | X more potent than ciprofloxacen [1]: 0.04 | MRSa IC50 [2]: 4.650 µg/mL | IC50 [2]: 4.18 µM | X more potent than ciprofloxacen [2]: 0.05

[Mn2(m-cyclam-homocyclen)][MnCl4]2•12H2O [AW047]
X more potent than Amphotericin B [3]: 0.08 | C. neoformans IC50 [3]: 3.770 µg/mL | IC50 [3]: 2.93 µM | S. aureus IC50 [1]: 5.380 µg/mL | IC50 [1]: 4.18 µM | X more potent than ciprofloxacen [1]: 0.07 | MRSa IC50 [2]: 7.850 µg/mL | IC50 [2]: 6.09 µM | X more potent than ciprofloxacen [2]: 0.03

CC(=O)[O-].F[P-](F)(F)(F)(F)F.[Co+2].c1ccc(CN2CCCN3CCCN(CCCN(Cc4ccccc4)CC3)CC2)cc1 [DJD21, [Co(Bn2PBCyclam)(OAc)]PF6]
X more potent than Amphotericin B [3]: 0.05 | C. neoformans IC50 [3]: 3.510 µg/mL | IC50 [3]: 5.13 µM | X more potent than Pentamidine [4]: 0.26 | L. donovani IC50 [4]: 14.12 µg/mL | IC50 [4]: 20.7 µM | S. aureus IC50 [1]: 3.590 µg/mL | IC50 [1]: 5.25 µM | X more potent than ciprofloxacen [1]: 0.05 | MRSa IC50 [2]: 3.710 µg/mL | IC50 [2]: 5.43 µM | X more potent than ciprofloxacen [2]: 0.04

[Cu(Bn2PBCyclam)(OAc)]PF6•5H2O [BME10B]
X more potent than Amphotericin B [3]: 0.01 | C. neoformans IC50 [3]: 13.810 µg/mL | IC50 [3]: 18.8 µM | X more potent than Pentamidine [4]: 1.07 | L. donovani IC50 [4]: 3.64 µg/mL | IC50 [4]: 4.96 µM | S. aureus IC50 [1]: 5.670 µg/mL | IC50 [1]: 7.73 µM | X more potent than ciprofloxacen [1]: 0.04 | MRSa IC50 [2]: 5.350 µg/mL | IC50 [2]: 7.3 µM | X more potent than ciprofloxacen [2]: 0.03

CC(=O)[O-].F[P-](F)(F)(F)(F)F.[Ni+2].c1ccc(CN2CCN3CCCN(CC2)CCN(Cc2ccccc2)CC3)cc1 [AW039, [Ni(Bn2PBCyclen)(C2H3O2)]PF6]
X more potent than Amphotericin B [3]: 0.02 | C. neoformans IC50 [3]: 7.640 µg/mL | IC50 [3]: 11.7 µM | X more potent than Pentamidine [4]: 0.14 | L. donovani IC50 [4]: 24.41 µg/mL | IC50 [4]: 37.2 µM | X more potent than Amphotericin B [5]: 0.17 | C. krusei IC50 [5]: 5.610 µg/mL | IC50 [5]: 8.56 µM | C. glabrata IC50 [6]: 5.030 µg/mL | IC50 [6]: 7.68 µM | X more potent than Amphotericin B [6]: 0.18 | S. aureus IC50 [1]: 4.73 µg/mL | IC50 [1]: 7.22 µM | X more potent than ciprofloxacen [1]: 0.04

c1cc(CN2CCN3CCNCCN(CC3)CC2)ccc1CN1CCN2CCNCCN(CC2)CC1 [JGL19, p-CB-H2Bcyclens]
X more potent than Amphotericin B [3]: 0.20 | C. neoformans IC50 [3]: 0.590 µg/mL | IC50 [3]: 1.18 µM | X more potent than Pentamidine [4]: 0.31 | L. donovani IC50 [4]: 8.54 µg/mL | IC50 [4]: 17.1 µM | S. aureus IC50 [1]: 2.900 µg/mL | IC50 [1]: 5.81 µM | X more potent than ciprofloxacen [1]: 0.05 | MRSa IC50 [2]: 1.060 µg/mL | IC50 [2]: 2.12 µM | X more potent than ciprofloxacen [2]: 0.10

[Ni2(m-CB-Homocyclens)(OAc)1.9][PF6]2.1 [CDG038]
X more potent than Amphotericin B [3]: 0.09 | C. neoformans IC50 [3]: 3.010 µg/mL | IC50 [3]: 2.76 µM | X more potent than Pentamidine [4]: 0.29 | L. donovani IC50 [4]: 19.92 µg/mL | IC50 [4]: 18.3 µM | S. aureus IC50 [1]: 9.58 µg/mL | IC50 [1]: 8.8 µM | X more potent than ciprofloxacen [1]: 0.03 | MRSa IC50 [2]: 9.080 µg/mL | IC50 [2]: 8.34 µM | X more potent than ciprofloxacen [2]: 0.03

[Fe(Bn2PBCyclen)(C2H3O2)]PF6•1.2NH4PF6 [AW037]
X more potent than Amphotericin B [3]: 0.02 | C. neoformans IC50 [3]: 8.400 µg/mL | IC50 [3]: 9.9 µM | X more potent than Pentamidine [4]: 0.17 | L. donovani IC50 [4]: 26.63 µg/mL | IC50 [4]: 31.4 µM | S. aureus IC50 [1]: 4.940 µg/mL | IC50 [1]: 5.83 µM | X more potent than ciprofloxacen [1]: 0.05 | MRSa IC50 [2]: 9.480 µg/mL | IC50 [2]: 11.2 µM | X more potent than ciprofloxacen [2]: 0.02
